The values below are quoted from earlier work in patent US20200397756A1, “A STABLE PHARMACEUTICAL COMPOSITION OF POORLY SOLUBLE NONSTEROIDAL ANTIANDROGENS” (KASHIV BIOSCIENCES, LLC, priority 2018, published 2020).

For series [1] the following is noted: water between pH 1 to 11.
Test in series [2]: not given
This is another data set of the same source.

For `CNC(=O)c1ccc(N2C(=S)N(c3cnc(C#N)c(C(F)(F)F)c3)C(=O)C23CCC3)cc1F` [apalutamide, 4-(7-(6-Cyano-5-(trifluoromethyl)pyridin-3-yl)-8-oxo-6-thioxo-5,7-diazaspiro(3.4)octan-5-yl)-2-fluoro-N-methylbenzamide], the permeability entry was “high”. Moreover, in series [1], the solubility in water result is “practically insoluble”. Moreover, in series [2], the “solubility in absolute ethanol” value was “sparingly soluble”.

As for `CNC(=O)c1ccc(N2C(=S)N(c3ccc(C#N)c(C(F)(F)F)c3)C(=O)C2(C)C)cc1F` [Enzalutamide, 4-{3-[4-cyano-3-(trifluoromethyl)phenyl]-5,5-dimethyl-4-oxo-2-sulfanylideneimidazolidin-1-yl}-2-fluoro-N-methylbenzamide], the permeability result was “high”. The solubility in water result in series [1] is given as “practically insoluble”. Also, the “solubility in absolute ethanol” value in series [2] is reported as “sparingly soluble”.
